Holding throughout (type): cell-based
The test system of assay [1] is MCF-10A (human breast epithelial cell line). Kind of assay: Cytotoxic activity against MCF-10A. Conditions: cytotoxicity, normal breast epithelial cells. The protocol:
(§1) The in vitro anti-proliferative activity of all synthesized analogues against MDA-MB-231 and MCF-7 cells was tested using the 3-(4,5-dimethylthiazol-2-yl)-[…] (MTT) method. […] Usually, Dox has been used as a positive control in many basic studies, especially drug screening assay. […] In the meantime, the cytotoxic activity of 2K–2N, PTE, and Dox against MCF-10A (human breast epithelial cell line) was examined. […] By contrast, the substitution of a saturated six-membered nitrogen heterocyclic ring on the side chain is extremely favorable for enhancing anti-BC efficacy (2L–2N vs. 1, PTE, 2A–2J). Based on the preceding analysis, analogue 2L was selected as the most promising anti-BC agent and used in the follow-up study.

Assay [2] concerns MCF-7 cells. The experiment in a line: MTT anti-proliferative assay, MCF-7. Conditions: Homo sapiens, MCF7, 48 h. On the procedure: as §1
(§2) The human breast cancer cell lines MDA-MB-231 and MCF-7 were purchased from the Chinese Academy of Science and cultured in Dulbecco’s modified Eagle’s medium (DMEM, Gibco, New York, NY, USA) containing 10% fetal bovine serum (FBS), 2 mM L-glutamine, 100 U/mL penicillin, and 100 μg/mL streptomycin. Then, the cells were maintained in a humidified incubator at 37 °C in the presence of 5% CO2.
(§3) The MTT assay was used to test the effect of PTEs on cell viability. The MDA-MB-231 (3 × 10^3 cells/well) and MCF-7 (4 × 10^3 cells/well) cells were seeded in a 96-well plate and cultured at 37 °C in a 5% CO2 incubator overnight. Afterwards, the medium was replaced with different concentrations of the title compounds (1, 3, 10, 30, and 100 μM). After incubation for 48 h, 10 μL of MTT solution (5 mg/mL) was added to each well and incubated for another 4 h. The optical density (OD) of the samples was measured using a microplate reader (Biotek, Burlington, VT, USA) at 570 nm. The inhibition rate (%) = [A570 (control) − A570 (compound)]/A570 (control) × 100%. The IC50 values were calculated using SPSS software version 17.0 (SPSS Inc., Chicago, IL, USA).
On the technique in general: Tetrazolium assays rely on reduction of a dye to a coloured formazan, in cell work by metabolically active cells.

Assay [3] relates to MDA-MB-231 cells. The experiment in a line: MTT anti-proliferative assay, MDA-MB-231. Particulars: Homo sapiens, 48 h. The protocol:
as §1, §2, §3

Where only a bound is given, the exact number is not on record here.

One may read the IC50 as the concentration that inhibits the measured activity by half. A low value points to higher potency.

`COc1cc(/C=C/c2ccc(OCCCn3ccnc3)cc2)cc(OC)c1` [Compound 2K, (E)-1-(3-(4-(3,5-dimethoxystyryl)phenoxy)propyl)-1H-imidazole]: the figures for the IC50 in assay [1], in assay [2] and in assay [3] were 49 ± 1.31 µM, 21 ± 0.56 µM and 18.7 ± 0.71 µM, respectively.

As to `COc1cc(/C=C/c2ccc(O)cc2)cc(OC)c1` [PTE, 3,5-dimethoxy-4′-hydroxy-trans-stilbene, reference compound], the IC50 in assay [1] was above 100 µM; in assay [2], 44.3 ± 0.48 µM; in assay [3], 63.59 ± 0.4 µM.

For the molecule `COc1cc(/C=C/c2ccc(OCCCN3CCOCC3)cc2)cc(OC)c1` [Compound 2M, (E)-4-(3-(4-(3,5-dimethoxystyryl)phenoxy)propyl)morpholine], the IC50 in assay [1] was 70.39 ± 0.43 µM; in assay [2], 42 ± 0.79 µM; in assay [3], 49.3 ± 2.48 µM.

On to `COc1cc(/C=C/c2ccc(OCCCN3CCN(C)CC3)cc2)cc(OC)c1` [Compound 2N, (E)-1-(3-(4-(3,5-dimethoxystyryl)phenoxy)propyl)-4-methylpiperazine], for which the IC50 was found to be 37.3 ± 0.96 µM in assay [1], 18.1 ± 0.55 µM in assay [2] and 17.7 ± 0.81 µM in assay [3].

For `COc1cccc2c1C(=O)c1c(O)c3c(c(O)c1C2=O)C[C@@](O)(C(=O)CO)C[C@@H]3O[C@H]1C[C@H](N)[C@H](O)[C@H](C)O1` [Dox, Doxorubicin, reference compound], the half-maximal inhibitory concentration (IC50) in assay [1] came out at 2.27 ± 0.19 µM; in assay [2], 3.57 ± 0.41 µM; in assay [3], 2.3 ± 0.32 µM.

Source of the values: article PMC10380385, “Synthesis, In Vitro, and In Vivo Investigations of Pterostilbene-Tethered Analogues as Anti-Breast Cancer Candidates” (International Journal of Molecular Sciences, 2023).
